Assay results as given in patent US20200377561A1, “ANTIMICROBIAL PEPTIDES AND METHODS OF TREATING GRAM-NEGATIVE PATHOGEN INFECTIONS: POLAR AND NON-POLAR FACE ANALOGS” (THE REGENTS OF THE UNIVERSITY OF COLORADO, a body corporate, priority 2017, published 2020).
Peptide text beside a SMILES is read from it.

What was measured:
[1] = tested on: Acinetobacter baumannii NCTC 13420; assay type: cell-based; conditions: NCTC 13420
Method: (§1) Bacterial strains were acquired from the American Type Culture Collection (ATCC, Virginia, USA) and the National Collection of Type Cultures (NCTC, Public Health England, Salisbury, UK). Minimum Inhibitory Concentration (MIC) of peptides versus gram-negative strains-Acinetobacter baumannii NCTC 13420, and Pseudomonas aeruginosa ATCC 27853 and gram-positive strain Staphylococcus aureus ATCC 29213, were determined by broth microdilution as per the guidelines of the Clinical and Laboratory Standards Institute (“Methods for Dilution Antimicrobial Susceptibility Tests for Bacteria That Grow Aerobically”; Approved Standard-Ninth Edition. CLSI document M07-A9, 2012). Peptides were dissolved in sterile distilled water, which was also used as the drug-free vehicle control when determining peptide MICs. Prior to use in the MIC protocol, bacterial strains were grown on Mueller Hinton agar at 37° C. in an ambient atmosphere. […] A fixed inoculum of the test microorganism (5×10^5 cells/mL) is also added to the plate. The MIC is determined as the lowest concentration of compound that inhibits visible bacterial growth following incubation at 37° C. for 16-20 hours. A difference in MIC of two-fold between experimental replicates is considered to be within the normal variability of this protocol.

[2] = tested on: Pseudomonas aeruginosa ATCC 27853; assay type: cell-based; conditions: ATCC 27853
Method: as §1

[3] = tested on: Human erythrocytes; test: Haemolysis assay using human blood; assay type: cell-based; conditions: red cells of human, 1 h
Method: To determine the extent of haemolytic activity (the ability to lyse red blood cells) in test peptides, a haemolysis assay was conducted using human blood (BioIVT, West Sussex, UK). Human erythrocytes were exposed to a single fixed concentration or a range of concentrations as to determine the % haemolysis (fixed concentration) or the concentration at which 50% haemolysis occurred (HC50), respectively. Prior to the assay, whole human blood was repeatedly washed in phosphate buffered saline (PBS) under cooled conditions to remove the buffy coat, plasma and cell debris. Washed erythrocytes were diluted as to achieve 1×10^8 cells/mL in PBS. Prepared human erythrocyte samples were combined with peptide at a single fixed concentration of 128 μg/mL, or a range of concentrations (two-fold dilution series) from 1000-31.25 μg/mL. Positive and negative controls containing 2% (v/v) Triton X-100 and PBS alone, respectively, were also prepared. Samples were incubated at 37° C. for 1 hour and then centrifuged to collect intact erythrocytes. Haemoglobin release was determined by recording the optical density of the supernatant at 540 nm. Optical density values were transformed to a percentage of the positive control. Results were recorded as a percentage haemolysis at 128 μg/mL, or by plotting the percentage haemolysis versus concentration and extrapolating the HC50 using linear regression analysis (Table 2 above)
The therapeutic index is a widely-accepted parameter to represent the specificity of antimicrobial peptides for prokaryotic versus eukaryotic cells. It is calculated by the ratio of hemolytic activity and antimicrobial activity (MIC) (Table 2 above); thus, larger values of therapeutic index indicate greater specificity for prokaryotic cells. With the peptides used in this study the inventors used the HC50/MIC ratio value to calculate the therapeutic index.

[4] = Peptide hydrophobicity by RP-HPLC retention; assay type: physicochemical; conditions: for tR (relative hydrophobicity by RP-HPLC): Zorbax SB-300 C8, 0.25% B/min from 10% B, 0.3 ml/min, 30° C.; for ΔtR (Lys): retention time difference to the Lys13/Lys16 parent peptide
From the text: Retention behavior in RP-HPLC is an excellent method to represent overall peptide hydrophobicity. Retention times of peptides are highly sensitive to the conformational status of the peptides upon interaction with the hydrophobic environment of the column matrix^17,26. The non-polar faces of amphipathic alpha-helical and amphipathic cyclic beta-sheet peptides represent a preferred binding domain for interaction with the hydrophobic matrix of the reversed-phase column^27. In this study, the observed peptide hydrophobicity was determined by RP-HPLC retention time as described below and are relative hydrophobicities because they are dependent on the TFA concentration and organic solvent in the mobile phase, gradient rate, temperature, flow rate and the column used. Analytical Purification by Reversed-phase Chromatography: Analytical RP-HPLC: Column: Zorbax SB-300 C8 (150×2.1 mm ID; 5-μm particle size; 300 Å pore size). Conditions: linear AB gradient (0.25% B/min from 10% B) at a flow-rate of 0.3 ml/min, where Eluent A is 0.2% aq. TFA and Eluent B is 0.18% TFA in acetonitrile; 30° C.

| Compound | Antimicrobial Activity MIC A. baumannii NCTC13420 [1] [µg/mL] | P. aeruginosa ATCC27853 MIC [2] [µg/mL] | Haemolysis HC50 [3] [µg/mL] | tR (relative hydrophobicity by RP-HPLC) [4] [min] | ΔtR (Lys) [4] [min] |
| --- | --- | --- | --- | --- | --- |
| CC(=O)N[C@H](C)C(=O)N[C@H](CC(C)C)C(=O)N[C@H](CCCCN)C(=O)N[C@H](CCCCN)C(=O)N[C@H](CC(C)C)C(=O)N[C@H](CC(C)C)C(=O)N[C@H](CCCCN)C(=O)N[C@H](CCCCN)C(=O)N[C@H](CC(C)C)C(=O)N[C@H](CO)C(=O)N[C@H](CO)C(=O)N[C@H](C)C(=O)N[C@H](CN)C(=O)N[C@H](CO)C(=O)N[C@H](CO)C(=O)N[C@H](CN)C(=O)N[C@H](CC(C)C)C(=O)N[C@H](CO)C(=O)N[C@@H](C(=O)N[C@H](CC(C)C)C(=O)N[C@H](CC(C)C)C(=O)N[C@H](CCCCN)C(=O)N[C@H](CCCCN)C(=O)N[C@H](CC(C)C)C(=O)N[C@H](CCCCN)C(=O)N[C@H](CCCCN)C(N)=O)[C@H](C)O [compound 21] (HELM PEPTIDE1{[ac].[dA].[dL].[dK].[dK].[dL].[dL].[dK].[dK].[dL].[dS].[dS].[dA].[NC[C@@H](N[*:1])C(=O)[*:2]].[dS].[dS].[NC[C@@H](N[*:1])C(=O)[*:2]].[dL].[dS].[dT].[dL].[dL].[dK].[dK].[dL].[dK].[dK].[am]}$$$$V2.0) | 2 | 4 | >1000 | 94.92 | 0.41 |
| CC(=O)N[C@H](C)C(=O)N[C@H](CC(C)C)C(=O)N[C@H](CCCCN)C(=O)N[C@H](CCCCN)C(=O)N[C@H](CC(C)C)C(=O)N[C@H](CC(C)C)C(=O)N[C@H](CCCCN)C(=O)N[C@H](CCCCN)C(=O)N[C@H](CC(C)C)C(=O)N[C@H](CO)C(=O)N[C@H](CO)C(=O)N[C@H](C)C(=O)N[C@H](CCN)C(=O)N[C@H](CO)C(=O)N[C@H](CO)C(=O)N[C@H](CCN)C(=O)N[C@H](CC(C)C)C(=O)N[C@H](CO)C(=O)N[C@@H](C(=O)N[C@H](CC(C)C)C(=O)N[C@H](CC(C)C)C(=O)N[C@H](CCCCN)C(=O)N[C@H](CCCCN)C(=O)N[C@H](CC(C)C)C(=O)N[C@H](CCCCN)C(=O)N[C@H](CCCCN)C(N)=O)[C@H](C)O [compound 20] (HELM PEPTIDE1{[ac].[dA].[dL].[dK].[dK].[dL].[dL].[dK].[dK].[dL].[dS].[dS].[dA].[NCC[C@@H](N[*:1])C(=O)[*:2]].[dS].[dS].[NCC[C@@H](N[*:1])C(=O)[*:2]].[dL].[dS].[dT].[dL].[dL].[dK].[dK].[dL].[dK].[dK].[am]}$$$$V2.0) | 2 | 4 | >1000 | 91.57 | 2.94 |
| CC(=O)N[C@H](CCCCN)C(=O)N[C@H](CC(C)C)C(=O)N[C@H](CCCCN)C(=O)N[C@H](CCCCN)C(=O)N[C@H](CC(C)C)C(=O)N[C@H](CC(C)C)C(=O)N[C@H](CCCCN)C(=O)N[C@H](CCCCN)C(=O)N[C@H](CC(C)C)C(=O)N[C@H](CO)C(=O)N[C@H](CO)C(=O)N[C@H](C)C(=O)N[C@H](CCCN)C(=O)N[C@H](CO)C(=O)N[C@H](CO)C(=O)N[C@H](CCCN)C(=O)N[C@H](CC(C)C)C(=O)N[C@H](CO)C(=O)N[C@@H](C(=O)N[C@H](CC(C)C)C(=O)N[C@H](CC(C)C)C(=O)N[C@H](CCCCN)C(=O)N[C@H](CCCCN)C(=O)N[C@H](CC(C)C)C(=O)N[C@H](CCCCN)C(=O)N[C@H](CCCCN)C(N)=O)[C@H](C)O [compound 14] (HELM PEPTIDE1{[ac].[dK].[dL].[dK].[dK].[dL].[dL].[dK].[dK].[dL].[dS].[dS].[dA].[NCCC[C@@H](N[*:1])C(=O)[*:2]].[dS].[dS].[NCCC[C@@H](N[*:1])C(=O)[*:2]].[dL].[dS].[dT].[dL].[dL].[dK].[dK].[dL].[dK].[dK].[am]}$$$$V2.0) | 2 | 4 | >1000 | 83.40 | 3.97 |
